Results: US20250145665A1, “MACROCYCLIC PEPTIDES USEFUL AS MODULATORS OF TNF ALPHA” (Bristol-Myers Squibb Company, priority 2023, published 2025)
pIC50: −log10 of the molar value. Where two headings read alike, the source gives them in different places. Starred links: 1 amine or outer side, 2 acyl side, 3 side chain; linkers in the order of their positions; H or OH if unused. Positions of bridges follow the written chain, without caps; N, C: chain ends. Non-standard residues stand in square brackets, D forms with d. Residues, ends and D or L forms follow the SMILES beside them. *: point of attachment. Bip(4'-NHCO-C6H4-3-CH2COOH) = N[C@@H](Cc1ccc(-c2ccc(NC(=O)c3cccc(CC(=O)O)c3)cc2)cc1)C(=O)O; dArg(Nω-CH2C6H4-3-CH2Gua) = N=C(N)NCc1cccc(CNC(=N)NCCC[C@@H](N)C(=O)O)c1; Bip(4'-NHBz) = N[C@@H](Cc1ccc(-c2ccc(NC(=O)c3ccccc3)cc2)cc1)C(=O)O; Bip(4'-NH) = O=C([C@H](Cc1ccc(-c2ccc(N[*:3])cc2)cc1)N[*:1])[*:2]; dArg(ω-Bn(3-CH2OH)) = N=C(NCCC[C@@H](N)C(=O)O)NCc1cccc(CO)c1; Indazole3carbonyl(1-CH2COOH) = O=C(O)Cn1nc(C(=O)*)c2ccccc21; Bip(4'-COOH) = N[C@@H](Cc1ccc(-c2ccc(C(=O)O)cc2)cc1)C(=O)O; X33 = N=C(NCCC[C@@H](N[*:1])C(=O)[*:2])NCc1cccc(CC(=O)O)c1; X53 = CC(C)(C)n1nnc(CNC(=N)NCCC[C@@H](N[*:1])C(=O)[*:2])n1; X87 = N=C(NCCC[C@@H](N[*:1])C(=O)[*:2])NCc1ccc(C(=O)O)cc1; X80 = N=C(NCCC[C@@H](N[*:1])C(=O)[*:2])NCc1ccc2c(c1)OCO2; X44 = N#Cc1ccc(CNC(=N)NCCC[C@@H](N[*:1])C(=O)[*:2])cc1; X28 = N=C(NCCC[C@@H](N[*:1])C(=O)[*:2])NCc1ccc(CN)cc1; X7 = N=C(NCCC[C@@H](N[*:1])C(=O)[*:2])NCc1ccc2occc2c1; X26 = N=C(NCCC[C@@H](N[*:1])C(=O)[*:2])NCc1ccc(O)cc1; Ala(morpholin-4-yl) = N[C@@H](CN1CCOCC1)C(=O)O; Benzoyl(4-OCH2COOH) = O=C(O)COc1ccc(C(=O)*)cc1; Bip = N[C@@H](Cc1ccc(-c2ccccc2)cc1)C(=O)O; Cha = N[C@@H](CC1CCCCC1)C(=O)O; X62 = COC(=O)Cc1cccc(C(=O)*)c1; Chg = N[C@H](C(=O)O)C1CCCCC1; Tle = CC(C)(C)[C@H](N)C(=O)O; Sar = CNCC(=O)O

Target: TNFα (Homo sapiens, UniProt P01375)
Experiment: TNF-Induced HEK-Blue Assay
Type: cell-based
[1] = HEK-Blue-CD40L cells, NF-kB-driven secreted alkaline phosphatase reporter, TNFα 0.5 ng/ml, 18 h, read-out: TNF induced HEK-Blue assay IC50 value

TNFα, sequence (P01375 77-233 limits assumed): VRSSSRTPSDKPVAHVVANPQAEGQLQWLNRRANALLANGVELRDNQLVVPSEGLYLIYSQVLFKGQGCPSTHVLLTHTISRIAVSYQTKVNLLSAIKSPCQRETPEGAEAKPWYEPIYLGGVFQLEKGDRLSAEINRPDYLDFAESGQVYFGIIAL

| Structure (SMILES) | pIC50 [1] | pIC50 |
| --- | --- | --- |
| CC(C)C[C@@H]1NC(=O)[C@H](CCCNC(=N)N)NC(=O)[C@H](C(C)C)NC(=O)[C@@H]2CCCN2C(=O)[C@H](C(C)C)NC(=O)[C@@H](CCCNC(=N)NCc2cccc(CO)c2)NC(=O)[C@H](CC(=O)O)NC(=O)[C@@H]2CCCN2C(=O)CN(C)C(=O)[C@H](Cc2ccc(-c3ccc(NC(=O)c4ccc(OCC(=O)O)cc4)cc3)cc2)NC(=O)[C@H](Cc2ccc(-c3ccccc3)cc2)NC(=O)[C@H](CN2CCOCC2)NC(=O)CSC[C@@H](C(=O)NCC(N)=O)NC1=O [Example 500] ({CH2CO}-[Ala(morpholin-4-yl)][Bip][Bip(4'-NH)](Benzoyl(4-OCH2COOH))[Sar]PD[dArg(ω-Bn(3-CH2OH))]VPVRLCG-NH2; thioether N-13) | > 7.30 |  |
| CC(C)C[C@@H]1NC(=O)[C@H](CCCNC(=N)N)NC(=O)[C@H](C(C)C)NC(=O)[C@@H]2CCCN2C(=O)[C@H](C(C)C)NC(=O)[C@@H](CCCNC(=N)NCc2ccc(CN)cc2)NC(=O)[C@H](CC(=O)O)NC(=O)[C@@H]2CCCN2C(=O)CN(C)C(=O)[C@H](Cc2ccc(-c3ccc(NC(=O)c4nn(CC(=O)O)c5ccccc45)cc3)cc2)NC(=O)[C@H](Cc2ccc(-c3ccccc3)cc2)NC(=O)[C@H](CN2CCOCC2)NC(=O)CSC[C@@H](C(=O)NCC(N)=O)NC1=O [Example 501] ({CH2CO}-[Ala(morpholin-4-yl)][Bip][Bip(4'-NH)](Indazole3carbonyl(1-CH2COOH))[Sar]PD[X28]VPVRLCG-NH2; thioether N-13) |  | 6.70 to 7.30 |
| CC[C@H](C)[C@@H]1NC(=O)[C@@H](CCCNC(=N)N)NC(=O)[C@H](CC(=O)O)NC(=O)[C@H](Cc2cnc[nH]2)NC(=O)CN(C)C(=O)[C@H](Cc2ccc(-c3ccc(NC(=O)c4cccc(CC(=O)OC)c4)cc3)cc2)NC(=O)[C@H](Cc2ccc(-c3ccccc3)cc2)NC(=O)[C@H](C(C)(C)C)NC(=O)CSC[C@@H](C(=O)NCC(N)=O)NC(=O)[C@H](CC(C)C)NC(=O)[C@H](Cc2c[nH]cn2)NC(=O)[C@H](C(C)C)NC(=O)[C@@H]2CCCN2C1=O [Example 502] ({CH2CO}-[Tle][Bip][Bip(4'-NH)](X62)[Sar]HD[dR]IPVHLCG-NH2; thioether N-13) |  | > 7.30 |
| CC[C@H](C)[C@@H]1NC(=O)[C@@H](CCCNC(=N)N)NC(=O)[C@H](CC(=O)O)NC(=O)[C@H](Cc2cnc[nH]2)NC(=O)CN(C)C(=O)[C@H](Cc2ccc(-c3ccc(NC(=O)c4cccc(CC(=O)OC)c4)cc3)cc2)NC(=O)[C@H](Cc2ccc(-c3ccc(C(=O)O)cc3)cc2)NC(=O)[C@H](CC2CCCCC2)NC(=O)CSC[C@@H](C(=O)NCC(N)=O)NC(=O)[C@H](CC(C)C)NC(=O)[C@H](Cc2c[nH]cn2)NC(=O)[C@H](C(C)C)NC(=O)[C@@H]2CCCN2C1=O [Example 503] ({CH2CO}-[Cha][Bip(4'-COOH)][Bip(4'-NH)](X62)[Sar]HD[dR]IPVHLCG-NH2; thioether N-13) |  | > 7.30 |
| CC[C@H](C)[C@@H]1NC(=O)[C@@H](CCCNC(=N)NCc2cccc(CO)c2)NC(=O)[C@H](CC(=O)O)NC(=O)[C@H](Cc2cnc[nH]2)NC(=O)CN(C)C(=O)[C@H](Cc2ccc(-c3ccc(NC(=O)c4cccc(CC(=O)O)c4)cc3)cc2)NC(=O)[C@H](Cc2ccc(-c3ccccc3)cc2)NC(=O)[C@H](CC2CCCCC2)NC(=O)CSC[C@@H](C(=O)NCC(N)=O)NC(=O)[C@H](CC(C)C)NC(=O)[C@H](Cc2c[nH]cn2)NC(=O)[C@H](C(C)C)NC(=O)[C@@H]2CCCN2C1=O [Example 504] ({CH2CO}-[Cha][Bip][Bip(4'-NHCO-C6H4-3-CH2COOH)][Sar]HD[dArg(ω-Bn(3-CH2OH))]IPVHLCG-NH2; thioether N-13) | > 7.30 |  |
| CC[C@H](C)[C@@H]1NC(=O)[C@@H](CCCNC(=N)NCc2ccc3occc3c2)NC(=O)[C@H](CC(=O)O)NC(=O)[C@H](Cc2cnc[nH]2)NC(=O)CN(C)C(=O)[C@H](Cc2ccc(-c3ccc(NC(=O)c4cccc(CC(=O)O)c4)cc3)cc2)NC(=O)[C@H](Cc2ccc(-c3ccccc3)cc2)NC(=O)[C@H](CC2CCCCC2)NC(=O)CSC[C@@H](C(=O)NCC(N)=O)NC(=O)[C@H](CC(C)C)NC(=O)[C@H](Cc2c[nH]cn2)NC(=O)[C@H](C(C)C)NC(=O)[C@@H]2CCCN2C1=O [Example 505] ({CH2CO}-[Cha][Bip][Bip(4'-NHCO-C6H4-3-CH2COOH)][Sar]HD[X7]IPVHLCG-NH2; thioether N-13) | 6.70 to 7.30 |  |
| CC(C)C[C@@H]1NC(=O)[C@H](CCCNC(=N)N)NC(=O)[C@H](C(C)C)NC(=O)[C@@H]2CCCN2C(=O)[C@H](C(C)C)NC(=O)[C@@H](CCCNC(=N)NCc2ccc(C#N)cc2)NC(=O)[C@H](CC(=O)O)NC(=O)[C@@H]2CCCN2C(=O)CN(C)C(=O)[C@H](Cc2ccc(-c3ccc(NC(=O)c4nn(CC(=O)O)c5ccccc45)cc3)cc2)NC(=O)[C@H](Cc2ccc(-c3ccccc3)cc2)NC(=O)[C@H](CN2CCOCC2)NC(=O)CSC[C@@H](C(=O)NCC(N)=O)NC1=O [Example 506] ({CH2CO}-[Ala(morpholin-4-yl)][Bip][Bip(4'-NH)](Indazole3carbonyl(1-CH2COOH))[Sar]PD[X44]VPVRLCG-NH2; thioether N-13) |  | > 7.30 |
| CC(C)C[C@@H]1NC(=O)[C@H](CCCNC(=N)N)NC(=O)[C@H](C(C)C)NC(=O)[C@@H]2CCCN2C(=O)[C@H](C(C)C)NC(=O)[C@@H](CCCNC(=N)NCc2ccc(C(=O)O)cc2)NC(=O)[C@H](CC(=O)O)NC(=O)[C@@H]2CCCN2C(=O)CN(C)C(=O)[C@H](Cc2ccc(-c3ccc(NC(=O)c4nn(CC(=O)O)c5ccccc45)cc3)cc2)NC(=O)[C@H](Cc2ccc(-c3ccccc3)cc2)NC(=O)[C@H](CN2CCOCC2)NC(=O)CSC[C@@H](C(=O)NCC(N)=O)NC1=O [Example 507] ({CH2CO}-[Ala(morpholin-4-yl)][Bip][Bip(4'-NH)](Indazole3carbonyl(1-CH2COOH))[Sar]PD[X87]VPVRLCG-NH2; thioether N-13) |  | > 7.30 |
| CC(C)C[C@@H]1NC(=O)[C@H](CCCNC(=N)N)NC(=O)[C@H](C(C)C)NC(=O)[C@@H]2CCCN2C(=O)[C@H](C(C)C)NC(=O)[C@@H](CCCNC(=N)NCc2ccc(O)cc2)NC(=O)[C@H](CC(=O)O)NC(=O)[C@@H]2CCCN2C(=O)CN(C)C(=O)[C@H](Cc2ccc(-c3ccc(NC(=O)c4nn(CC(=O)O)c5ccccc45)cc3)cc2)NC(=O)[C@H](Cc2ccc(-c3ccccc3)cc2)NC(=O)[C@H](CN2CCOCC2)NC(=O)CSC[C@@H](C(=O)NCC(N)=O)NC1=O [Example 508] ({CH2CO}-[Ala(morpholin-4-yl)][Bip][Bip(4'-NH)](Indazole3carbonyl(1-CH2COOH))[Sar]PD[X26]VPVRLCG-NH2; thioether N-13) |  | > 7.30 |
| CC(C)C[C@@H]1NC(=O)[C@H](CCCNC(=N)N)NC(=O)[C@H](C(C)C)NC(=O)[C@@H]2CCCN2C(=O)[C@H](C(C)C)NC(=O)[C@@H](CCCNC(=N)NCc2ccc3c(c2)OCO3)NC(=O)[C@H](CC(=O)O)NC(=O)[C@@H]2CCCN2C(=O)CN(C)C(=O)[C@H](Cc2ccc(-c3ccc(NC(=O)c4nn(CC(=O)O)c5ccccc45)cc3)cc2)NC(=O)[C@H](Cc2ccc(-c3ccccc3)cc2)NC(=O)[C@H](CN2CCOCC2)NC(=O)CSC[C@@H](C(=O)NCC(N)=O)NC1=O [Example 509] ({CH2CO}-[Ala(morpholin-4-yl)][Bip][Bip(4'-NH)](Indazole3carbonyl(1-CH2COOH))[Sar]PD[X80]VPVRLCG-NH2; thioether N-13) |  | > 7.30 |
| CC(C)C[C@@H]1NC(=O)[C@H](CCCNC(=N)N)NC(=O)[C@H](C(C)C)NC(=O)[C@@H]2CCCN2C(=O)[C@H](C(C)C)NC(=O)[C@@H](CCCNC(=N)NCc2nnn(C(C)(C)C)n2)NC(=O)[C@H](CC(=O)O)NC(=O)[C@@H]2CCCN2C(=O)CN(C)C(=O)[C@H](Cc2ccc(-c3ccc(NC(=O)c4nn(CC(=O)O)c5ccccc45)cc3)cc2)NC(=O)[C@H](Cc2ccc(-c3ccccc3)cc2)NC(=O)[C@H](CN2CCOCC2)NC(=O)CSC[C@@H](C(=O)NCC(N)=O)NC1=O [Example 510] ({CH2CO}-[Ala(morpholin-4-yl)][Bip][Bip(4'-NH)](Indazole3carbonyl(1-CH2COOH))[Sar]PD[X53]VPVRLCG-NH2; thioether N-13) |  | > 7.30 |
| CC(C)C[C@@H]1NC(=O)[C@H](CCCNC(=N)N)NC(=O)[C@H](C(C)C)NC(=O)[C@@H]2CCCN2C(=O)[C@H](C(C)C)NC(=O)[C@@H](CCCNC(=N)NCc2cccc(CC(=O)O)c2)NC(=O)[C@H](CC(=O)O)NC(=O)[C@@H]2CCCN2C(=O)CN(C)C(=O)[C@H](Cc2ccc(-c3ccc(NC(=O)c4nn(CC(=O)O)c5ccccc45)cc3)cc2)NC(=O)[C@H](Cc2ccc(-c3ccccc3)cc2)NC(=O)[C@H](CN2CCOCC2)NC(=O)CSC[C@@H](C(=O)NCC(N)=O)NC1=O [Example 511] ({CH2CO}-[Ala(morpholin-4-yl)][Bip][Bip(4'-NH)](Indazole3carbonyl(1-CH2COOH))[Sar]PD[X33]VPVRLCG-NH2; thioether N-13) |  | 6.70 to 7.30 |
| CC(C)C[C@@H]1NC(=O)[C@H](CCCNC(=N)N)NC(=O)[C@H](C(C)C)NC(=O)[C@@H]2CCCN2C(=O)[C@H](C(C)C)NC(=O)[C@@H](CCCNC(=N)NCc2cccc(CNC(=N)N)c2)NC(=O)[C@H](CC(=O)O)NC(=O)[C@@H]2CCCN2C(=O)CN(C)C(=O)[C@H](Cc2ccc(-c3ccc(NC(=O)c4nn(CC(=O)O)c5ccccc45)cc3)cc2)NC(=O)[C@H](Cc2ccc(-c3ccccc3)cc2)NC(=O)[C@H](CN2CCOCC2)NC(=O)CSC[C@@H](C(=O)NCC(N)=O)NC1=O [Example 512] ({CH2CO}-[Ala(morpholin-4-yl)][Bip][Bip(4'-NH)](Indazole3carbonyl(1-CH2COOH))[Sar]PD[dArg(Nω-CH2C6H4-3-CH2Gua)]VPVRLCG-NH2; thioether N-13) |  | > 7.30 |
| CC(C)C[C@@H]1NC(=O)[C@H](Cc2c[nH]cn2)NC(=O)[C@H](C2CCCCC2)NC(=O)[C@@H]2CCCN2C(=O)[C@H](C(C)C)NC(=O)[C@@H](CCCNC(=N)N)NC(=O)[C@H](CC(=O)O)NC(=O)[C@H](Cc2cnc[nH]2)NC(=O)CN(C)C(=O)[C@H](Cc2ccc(-c3ccc(NC(=O)c4ccccc4)cc3)cc2)NC(=O)[C@H](Cc2ccc(-c3ccccc3)cc2)NC(=O)[C@H](CC2CCCCC2)NC(=O)CSC[C@@H](C(=O)NCC(N)=O)NC1=O [Example 513] ({CH2CO}-[Cha][Bip][Bip(4'-NHBz)][Sar]HD[dR]VP[Chg]HLCG-NH2; thioether N-13) |  | > 7.30 |
